These results are taken from patent publication US20180038865A1, “CD9 AS A THERAPEUTIC TARGET FOR HEMATOLOGIC MALIGNANCIES” (The Chinese and Knowledge Transfer Services, priority 2016, published 2018).

Molecules are shown by their SMILES.

What all share (experiment): Apoptosis assay (Annexin V/7-AAD), vincristine, monoculture or stromal co-culture
Common to all, as to assay type: cell-based, human

One test deals with RS4;11. As to conditions: vincristine 12.5 nM, 3 days. How it is done: (§1) […]: In vitro and in vivo effects of CD9 antibody on chemosensitivity of B-ALL cells. (FIG. 4A) B-ALL cell lines were treated with vincristine (VCR, 12.5 nM) for 3 days in monoculture or stromal co-culture. Apoptosis was monitored by Annexin V/7-AAD staining (n=4). (FIG. 4B) 697 cells were treated with VCR (12.5 nM) in stromal co-cultures for 3 days, in the presence of control IgG or anti-CD9 (ALB6, 10 μg/mL), and measured for apoptosis (n=4). (FIG. 4C) NOD/SCID mice were transplanted with 697 cells and treated with IgG alone, anti-CD9 alone (ALB6, 20 μg/mouse), IgG+VCR (0.8 mg/kg) or anti-CD9 + VCR. Antibodies and VCR were given twice a week for 2 weeks. Animal survival was analyzed (4-5 mice/group). Data are means±SEM. Statistics: (A and B) two-tailed, paired Student's t-test, (FIG. 4C) log-rank test. *P<0.05, **P<0.01.
(§2) B-ALL cell lines (1×10^5) were cultured with or without monolayers of BM stromal cells, and exposed to 10 μg/mL of control IgG or CD9 antibody (ALB6). Cells were then treated with vincristine (12.5 nM; Sigma Aldrich) for 3 days at 37° C. Apoptotic cell death was monitored using the Annexin V/7-AAD Apoptosis Detection Kit (BD Biosciences).

Another test deals with 697 cells. The settings on record: vincristine 12.5 nM, 3 days. Here is the method: as §1, §2
Another test concerns SUP-B15. As to conditions: vincristine 12.5 nM, 3 days. Here is the method:
as §1, §2

A further test has as its system Reh cells. As to conditions: vincristine 12.5 nM, 3 days; CD9low Reh. Here is the method: as §1, §2

As for `CC[C@]1(O)C[C@H]2CN(CCc3c([nH]c4ccccc34)[C@@](C(=O)OC)(c3cc4c(cc3OC)N(C=O)[C@H]3[C@@](O)(C(=O)OC)[C@H](OC(C)=O)[C@]5(CC)C=CCN6CC[C@]43[C@@H]65)C2)C1` [vincristine], the “vincristine-mediated apoptotic cell death, stromal co-culture vs monoculture” value in the test on RS4;11, in the test with 697 cells and with SUP-B15 was “reduced” throughout. For the same compound, the “protective effect of stromal cells against vincristine-mediated apoptotic cell death” value in the test with Reh cells is recorded as “absent”.
